Reference: ChEMBL document CHEMBL4390652, “Design, biological evaluation and X-ray crystallography of nanomolar multifunctional ligands targeting simultaneously acetylcholinesterase and glycogen synthase kinase-3” (Eur J Med Chem, 2019)

Tests used:
[1] = target: Dual specificity testis-specific protein kinase 1 (Homo sapiens) (UniProt Q15569); experiment: Binding affinity to wild-type human full length TESK1 (R37 to S626 residues) expressed in bacterial expression system assessed as residual binding level at 10 uM by Kinomescan method relative to control
Dual specificity testis-specific protein kinase 1 (Homo sapiens), sequence (Q15569 whole entry, looked up, the tested form may be a part): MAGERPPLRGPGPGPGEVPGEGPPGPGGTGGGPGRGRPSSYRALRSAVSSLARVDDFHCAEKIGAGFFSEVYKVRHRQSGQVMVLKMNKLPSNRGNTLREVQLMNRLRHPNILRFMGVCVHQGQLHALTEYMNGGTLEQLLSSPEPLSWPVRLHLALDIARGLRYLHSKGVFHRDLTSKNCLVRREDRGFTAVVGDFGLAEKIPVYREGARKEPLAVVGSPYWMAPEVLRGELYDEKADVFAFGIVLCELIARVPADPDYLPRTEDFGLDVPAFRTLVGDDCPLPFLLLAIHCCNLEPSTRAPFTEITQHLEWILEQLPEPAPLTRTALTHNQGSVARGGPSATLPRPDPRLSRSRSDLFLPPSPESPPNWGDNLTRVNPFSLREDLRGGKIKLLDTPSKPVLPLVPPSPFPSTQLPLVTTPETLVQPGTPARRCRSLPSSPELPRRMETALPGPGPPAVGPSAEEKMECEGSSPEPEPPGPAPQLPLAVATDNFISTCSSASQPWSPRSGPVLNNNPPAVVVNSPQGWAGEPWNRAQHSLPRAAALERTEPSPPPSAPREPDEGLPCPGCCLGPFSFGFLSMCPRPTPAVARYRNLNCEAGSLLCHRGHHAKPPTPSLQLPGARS

[2] = target: LIM domain kinase 2 (Homo sapiens) (UniProt P53671); experiment: Binding affinity to wild-type human full length LIMK2 (M1 to P638 residues) expressed in bacterial expression system assessed as residual binding level at 10 uM by Kinomescan method relative to control
[3] = target: Mitogen-activated protein kinase 15 (Homo sapiens) (UniProt Q8TD08); experiment: Binding affinity to wild-type human partial length ERK8 (M1 to P437 residues) expressed in bacterial expression system assessed as residual binding level at 10 uM by Kinomescan method relative to control
[4] = tested on: SH-SY5Y; experiment: Cytotoxicity against human SH-SY5Y cells assessed as reduction in cell viability incubated for 72 hrs by MTT assay; format: cell-based
[5] = tested on: Tyrosine-protein kinase ABL1 (Homo sapiens), P00519 [Y253F]; experiment: Binding affinity to human phosphorylated ABL1 Y253F mutant (S229 to K512 residues) expressed in mammalian expression system assessed as residual binding level at 10 uM by Kinomescan method relative to control
[6] = target: Wee1-like protein kinase 2 (Homo sapiens) (UniProt P0C1S8); experiment: Binding affinity to wild-type human partial length WEE2 (M204 to K492 residues) expressed in bacterial expression system assessed as residual binding level at 10 uM by Kinomescan method relative to control
[7] = target: Serine/threonine-protein kinase tousled-like 1 (Homo sapiens) (UniProt Q9UKI8); experiment: Binding affinity to wild-type human partial length TLK1 (K447 to A754 residues) expressed in bacterial expression system assessed as residual binding level at 10 uM by Kinomescan method relative to control
Serine/threonine-protein kinase tousled-like 1 (Homo sapiens), sequence (Q9UKI8 whole entry, the tested form may be a part): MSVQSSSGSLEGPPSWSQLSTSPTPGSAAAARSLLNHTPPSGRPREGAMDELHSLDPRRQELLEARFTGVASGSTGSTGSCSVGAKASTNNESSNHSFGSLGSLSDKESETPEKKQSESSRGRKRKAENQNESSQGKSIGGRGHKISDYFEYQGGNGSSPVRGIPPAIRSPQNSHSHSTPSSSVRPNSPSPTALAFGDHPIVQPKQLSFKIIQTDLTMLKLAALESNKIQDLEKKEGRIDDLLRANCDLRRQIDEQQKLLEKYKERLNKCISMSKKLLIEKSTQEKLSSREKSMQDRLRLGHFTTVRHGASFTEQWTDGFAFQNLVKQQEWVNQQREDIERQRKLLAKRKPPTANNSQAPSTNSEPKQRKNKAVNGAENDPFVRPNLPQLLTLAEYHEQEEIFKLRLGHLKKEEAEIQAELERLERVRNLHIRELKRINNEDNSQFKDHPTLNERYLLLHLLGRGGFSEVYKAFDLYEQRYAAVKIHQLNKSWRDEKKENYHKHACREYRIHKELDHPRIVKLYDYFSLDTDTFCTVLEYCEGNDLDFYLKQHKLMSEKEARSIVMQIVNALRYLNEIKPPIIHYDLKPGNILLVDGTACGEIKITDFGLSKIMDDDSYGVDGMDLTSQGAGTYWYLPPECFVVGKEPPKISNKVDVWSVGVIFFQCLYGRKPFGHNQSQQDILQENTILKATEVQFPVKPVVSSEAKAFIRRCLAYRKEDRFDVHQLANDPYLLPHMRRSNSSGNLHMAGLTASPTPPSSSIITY

[8] = target: Dual specificity protein kinase CLK3 (Homo sapiens) (UniProt P49761); experiment: Binding affinity to wild-type human full length CLK3 (M1 to R490 residues) expressed in bacterial expression system assessed as residual binding level at 10 uM by Kinomescan method relative to control
[9] = target: Phosphatidylinositol 5-phosphate 4-kinase type-2 gamma (Homo sapiens) (UniProt Q8TBX8); experiment: Binding affinity to wild-type human partial length PIP5K2C (M1 to A421 residues) expressed in mammalian expression system assessed as residual binding level at 10 uM by Kinomescan method relative to control
[10] = target: Ribosomal protein S6 kinase beta-1 (Homo sapiens) (UniProt P23443); experiment: Binding affinity to wild-type human partial length S6K1 (M1 to S421 residues) expressed in mammalian expression system assessed as residual binding level at 10 uM by Kinomescan method relative to control
[11] = target: Mitogen-activated protein kinase kinase kinase 2 (Homo sapiens) (UniProt Q9Y2U5); experiment: Binding affinity to wild-type human partial length MAP3K2 (S315 to H619 residues) expressed in mammalian expression system assessed as residual binding level at 10 uM by Kinomescan method relative to control
Mitogen-activated protein kinase kinase kinase 2 (Homo sapiens), sequence (Q9Y2U5 whole entry, the tested form may be a part): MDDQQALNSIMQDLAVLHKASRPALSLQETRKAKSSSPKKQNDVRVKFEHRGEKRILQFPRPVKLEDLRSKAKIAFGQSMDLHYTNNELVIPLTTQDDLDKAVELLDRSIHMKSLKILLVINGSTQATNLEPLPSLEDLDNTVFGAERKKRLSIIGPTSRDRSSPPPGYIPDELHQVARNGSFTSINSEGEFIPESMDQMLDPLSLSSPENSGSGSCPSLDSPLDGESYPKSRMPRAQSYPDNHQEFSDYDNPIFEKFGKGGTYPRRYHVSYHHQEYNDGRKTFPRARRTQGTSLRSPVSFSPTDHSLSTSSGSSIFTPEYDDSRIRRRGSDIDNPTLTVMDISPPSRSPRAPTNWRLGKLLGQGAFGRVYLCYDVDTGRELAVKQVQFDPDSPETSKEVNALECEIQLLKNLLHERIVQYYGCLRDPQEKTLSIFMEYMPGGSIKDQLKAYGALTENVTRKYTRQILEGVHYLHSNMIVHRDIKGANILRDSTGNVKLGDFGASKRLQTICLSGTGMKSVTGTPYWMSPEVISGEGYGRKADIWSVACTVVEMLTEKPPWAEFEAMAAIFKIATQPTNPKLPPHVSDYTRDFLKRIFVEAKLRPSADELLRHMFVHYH

[12] = target: Calcium/calmodulin-dependent protein kinase type 1 (Homo sapiens) (UniProt Q14012); experiment: Binding affinity to wild-type human full length CAMK1 (M1 to L370 residues) expressed in bacterial expression system assessed as residual binding level at 10 uM by Kinomescan method relative to control
[13] = target: 3-phosphoinositide-dependent protein kinase 1 (Homo sapiens) (UniProt O15530); experiment: Binding affinity to wild-type human full length PDPK1 (M1 to Q556 residues) expressed in bacterial expression system assessed as residual binding level at 10 uM by Kinomescan method relative to control
[14] = target: Cyclin-dependent kinase 4 (Homo sapiens) (UniProt P11802); experiment: Binding affinity to wild-type human full length CDK4 (M1 to E303 residues) expressed in mammalian expression system assessed as residual binding level at 10 uM by Kinomescan method relative to control
[15] = target: Receptor tyrosine-protein kinase erbB-3 (Homo sapiens) (UniProt P21860); experiment: Binding affinity to wild-type human partial length ERBB3 (G684 to A987 residues) expressed in mammalian expression system assessed as residual binding level at 10 uM by Kinomescan method relative to control
[16] = target: Serine/threonine-protein kinase PAK 1 (Homo sapiens) (UniProt Q13153); experiment: Binding affinity to wild-type human partial length PAK1 (S149 to H545 residues) expressed in bacterial expression system assessed as residual binding level at 10 uM by Kinomescan method relative to control
[17] = target: RAC-alpha serine/threonine-protein kinase (Homo sapiens) (UniProt P31749); experiment: Binding affinity to wild-type human partial length AKT1 expressed in bacterial expression system assessed as residual binding level at 10 uM by Kinomescan method relative to control
[18] = target: Mitogen-activated protein kinase kinase kinase 5 (Homo sapiens) (UniProt Q99683); experiment: Binding affinity to wild-type human partial length ASK1 (E648 to S964 residues) expressed in bacterial expression system assessed as residual binding level at 10 uM by Kinomescan method relative to control
[19] = target: Ephrin type-A receptor 8 (Homo sapiens) (UniProt P29322); experiment: Binding affinity to wild-type human partial length EPHA8 (Q608 to C920 residues) expressed in bacterial expression system assessed as residual binding level at 10 uM by Kinomescan method relative to control
[20] = target: Serine/threonine-protein kinase WNK2 (Homo sapiens) (UniProt Q9Y3S1); experiment: Binding affinity to wild-type human partial length WNK2 (V47 to D482 residues) expressed in mammalian expression system assessed as residual binding level at 10 uM by Kinomescan method relative to control
Serine/threonine-protein kinase WNK2 (Homo sapiens), sequence (Q9Y3S1 whole entry, the tested form may be a part, canonical isoform): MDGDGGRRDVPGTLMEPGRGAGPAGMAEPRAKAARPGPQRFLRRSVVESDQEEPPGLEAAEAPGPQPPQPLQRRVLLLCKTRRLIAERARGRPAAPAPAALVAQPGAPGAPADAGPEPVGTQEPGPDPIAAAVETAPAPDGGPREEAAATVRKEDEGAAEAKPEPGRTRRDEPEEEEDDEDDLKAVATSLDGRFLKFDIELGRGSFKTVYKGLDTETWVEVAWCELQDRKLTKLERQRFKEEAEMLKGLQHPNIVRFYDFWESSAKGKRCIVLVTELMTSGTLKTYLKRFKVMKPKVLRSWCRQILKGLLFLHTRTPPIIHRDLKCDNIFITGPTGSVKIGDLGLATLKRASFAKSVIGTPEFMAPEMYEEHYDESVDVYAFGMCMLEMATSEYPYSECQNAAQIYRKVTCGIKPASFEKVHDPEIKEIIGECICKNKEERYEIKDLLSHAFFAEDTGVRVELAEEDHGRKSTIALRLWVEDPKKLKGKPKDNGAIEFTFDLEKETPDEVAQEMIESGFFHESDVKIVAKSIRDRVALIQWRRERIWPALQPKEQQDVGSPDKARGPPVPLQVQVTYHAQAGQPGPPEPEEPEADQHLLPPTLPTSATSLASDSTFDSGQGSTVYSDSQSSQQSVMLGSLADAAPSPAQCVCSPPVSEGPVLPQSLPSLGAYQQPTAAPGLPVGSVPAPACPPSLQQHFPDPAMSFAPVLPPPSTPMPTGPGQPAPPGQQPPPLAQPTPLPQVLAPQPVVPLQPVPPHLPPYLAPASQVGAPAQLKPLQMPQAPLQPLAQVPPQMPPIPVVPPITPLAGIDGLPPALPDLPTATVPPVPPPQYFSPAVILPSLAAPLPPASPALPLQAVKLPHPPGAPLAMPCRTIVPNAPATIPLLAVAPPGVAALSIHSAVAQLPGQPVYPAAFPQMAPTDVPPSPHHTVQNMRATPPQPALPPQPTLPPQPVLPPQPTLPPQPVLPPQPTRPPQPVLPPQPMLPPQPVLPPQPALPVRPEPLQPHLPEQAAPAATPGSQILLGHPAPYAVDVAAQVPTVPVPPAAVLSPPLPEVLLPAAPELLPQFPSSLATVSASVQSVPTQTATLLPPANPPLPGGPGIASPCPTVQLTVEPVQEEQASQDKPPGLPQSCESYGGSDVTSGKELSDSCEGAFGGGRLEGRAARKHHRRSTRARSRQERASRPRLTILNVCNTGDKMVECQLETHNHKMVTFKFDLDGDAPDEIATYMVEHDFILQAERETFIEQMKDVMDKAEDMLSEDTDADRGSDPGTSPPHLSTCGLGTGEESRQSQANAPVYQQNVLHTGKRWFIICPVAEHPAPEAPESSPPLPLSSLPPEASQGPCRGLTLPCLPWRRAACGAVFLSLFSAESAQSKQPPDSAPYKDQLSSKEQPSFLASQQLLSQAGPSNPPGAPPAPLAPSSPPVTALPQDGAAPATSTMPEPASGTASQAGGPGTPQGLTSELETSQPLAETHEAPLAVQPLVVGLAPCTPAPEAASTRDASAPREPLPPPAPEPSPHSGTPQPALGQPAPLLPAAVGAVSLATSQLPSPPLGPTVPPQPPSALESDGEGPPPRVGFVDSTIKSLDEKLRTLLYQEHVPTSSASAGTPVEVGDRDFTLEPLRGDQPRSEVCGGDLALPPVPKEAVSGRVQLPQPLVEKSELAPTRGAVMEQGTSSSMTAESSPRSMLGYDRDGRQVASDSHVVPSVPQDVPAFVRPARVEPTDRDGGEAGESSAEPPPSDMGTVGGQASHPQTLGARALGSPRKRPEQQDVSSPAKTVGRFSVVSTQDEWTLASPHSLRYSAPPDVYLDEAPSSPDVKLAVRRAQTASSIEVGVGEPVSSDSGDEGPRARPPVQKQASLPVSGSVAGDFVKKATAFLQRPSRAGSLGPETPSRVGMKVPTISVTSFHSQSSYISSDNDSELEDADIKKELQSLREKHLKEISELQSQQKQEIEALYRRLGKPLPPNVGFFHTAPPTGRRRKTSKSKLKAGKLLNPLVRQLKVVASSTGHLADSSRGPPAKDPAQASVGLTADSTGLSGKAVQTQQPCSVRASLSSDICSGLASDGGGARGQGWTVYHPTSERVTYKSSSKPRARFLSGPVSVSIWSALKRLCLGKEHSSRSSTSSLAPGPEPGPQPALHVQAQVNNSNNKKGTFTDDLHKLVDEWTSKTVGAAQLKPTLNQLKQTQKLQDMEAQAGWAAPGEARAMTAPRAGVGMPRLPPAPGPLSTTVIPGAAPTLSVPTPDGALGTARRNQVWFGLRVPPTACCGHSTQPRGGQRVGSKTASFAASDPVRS

[21] = tested on: Phosphatidylinositol 4,5-bisphosphate 3-kinase catalytic subunit alpha isoform (Homo sapiens), P42336 [E545A]; experiment: Binding affinity to human partial length PIK3CA E545A mutant (R108 to N1068 residues) expressed in mammalian expression system assessed as residual binding level at 10 uM by Kinomescan method relative to control
[22] = target: Cyclin-dependent kinase 13 (Homo sapiens) (UniProt Q14004); experiment: Binding affinity to wild-type human partial length CDC2L5 (H675 to S1054 residues) expressed in mammalian expression system assessed as residual binding level at 10 uM by Kinomescan method relative to control
[23] = target: Dual specificity mitogen-activated protein kinase kinase 1 (Homo sapiens) (UniProt Q02750); experiment: Binding affinity to wild-type human full length MEK1 (M1 to V393 residues) expressed in mammalian expression system assessed as residual binding level at 10 uM by Kinomescan method relative to control
[24] = target: Mitogen-activated protein kinase 12 (Homo sapiens) (UniProt P53778); experiment: Binding affinity to wild-type human full length p38-gamma (M1 to L367 residues) expressed in mammalian expression system assessed as residual binding level at 10 uM by Kinomescan method relative to control
[25] = target: NT-3 growth factor receptor (Homo sapiens) (UniProt Q16288); experiment: Binding affinity to wild-type human partial length TRKC (Q531 to G825 residues) expressed in mammalian expression system assessed as residual binding level at 10 uM by Kinomescan method relative to control
NT-3 growth factor receptor (Homo sapiens), sequence (Q16288 32-839 limits assumed): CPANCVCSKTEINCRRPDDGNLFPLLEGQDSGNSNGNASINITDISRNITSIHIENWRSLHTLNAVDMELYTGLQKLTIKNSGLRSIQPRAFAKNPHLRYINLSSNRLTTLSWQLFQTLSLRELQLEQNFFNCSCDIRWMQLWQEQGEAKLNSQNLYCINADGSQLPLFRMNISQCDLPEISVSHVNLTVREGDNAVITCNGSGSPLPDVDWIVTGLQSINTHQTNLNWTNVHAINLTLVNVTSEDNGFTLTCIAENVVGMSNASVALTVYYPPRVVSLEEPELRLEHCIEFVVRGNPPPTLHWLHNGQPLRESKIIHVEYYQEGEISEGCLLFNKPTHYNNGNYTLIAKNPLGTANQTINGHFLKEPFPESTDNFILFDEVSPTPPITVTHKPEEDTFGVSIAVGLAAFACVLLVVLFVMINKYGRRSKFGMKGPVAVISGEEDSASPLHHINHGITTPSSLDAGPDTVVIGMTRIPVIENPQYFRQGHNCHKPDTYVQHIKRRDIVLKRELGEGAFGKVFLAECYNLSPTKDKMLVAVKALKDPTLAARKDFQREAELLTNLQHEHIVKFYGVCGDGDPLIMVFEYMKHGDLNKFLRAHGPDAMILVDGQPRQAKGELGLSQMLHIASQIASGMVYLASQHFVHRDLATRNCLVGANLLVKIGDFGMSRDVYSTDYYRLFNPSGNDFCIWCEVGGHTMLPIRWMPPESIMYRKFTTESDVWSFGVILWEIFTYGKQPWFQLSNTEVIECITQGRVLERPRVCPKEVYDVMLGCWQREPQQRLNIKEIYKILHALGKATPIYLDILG

## O=C(Nc1cc(-c2cn(CCNc3c4c(nc5ccccc35)CCCC4)nn2)ccn1)Nc1cccc2c1C1CCCCN1C2=O (racemic)
[1]
  Activity: 75%
[2]
  Activity: 60%
[3]
  Activity: 0.05%
[4]
  IC50: 13 µM
[5]
  Activity: 0.95%
[6]
  Activity: 100%
[7]
  Activity: 51%
[8]
  Activity: 100%
[9]
  Activity: 3.4%
[10]
  Activity: 10%
[11]
  Activity: 9.1%
[12]
  Activity: 52%
[13]
  Activity: 41%
[14]
  Activity: 3%
[15]
  Activity: 73%
[16]
  Activity: 88%
[17]
  Activity: 100%
[18]
  Activity: 80%
[19]
  Activity: 80%
[20]
  Activity: 100%
[21]
  Activity: 72%
[22]
  Activity: 0.61%
[23]
  Activity: 7.6%
[24]
  Activity: 5.7%
[25]
  Activity: 14%
